Tests used:
Adrenergic α1A = target: T1, Adrenergic α1A (Homo sapiens, UniProt P35348); experiment: Aequorin assay, Adrenergic α1A; format: cell-based; conditions: antagonism, CHO-K1 mAeq, read-out: Activity (Antagonism: IC50), Adrenergic a1A
T1 construct: expressed in transfected cells; host or cells: CHO-K1 mAeq
Protocol: (§1) Receptor […] activity assays were performed using 8′OH-2-CF3-dihydroergotamine (8′OH-2-CF3-DHE). Table 1 summarizes the cell lines (CHO-K1/HEK293 transfected with relevant human receptor) and the assays performed to detect any agonist or antagonist activity.
(§2) Aequorin assays were conducted to monitor activity for 8′OH-2CF3-dihydroergotamine (8′OH-2CF3-DHE) against the receptors indicated in Table 1 above (except for mGlu3 and mGlu5). CHO-K1 cells coexpressing mitochondrial apoaequorin and the recombinant human receptor of interest were grown to mid-log phase in culture media without antibiotics and then detached with PBS-EDTA, centrifuged and resuspended in assay buffer (DMEM/HAM's F12 with HEPES, without phenol red+0.1% BSA, protease free) at a concentration of 1×10^6 cell/mL. […]
(§3) 50 μL of the cell suspension was mixed with 50 μL of test or reference agonist in a 96-well plate. The resulting emission of light was recorded using Hamamatsu Functional Drug Screening System 6000 (FDSS 6000) luminometer. […]
(§4) To standardize the emission of recorded light (and determine of the “100% signal”) across plates and across different experiments, some wells contained 100 μM digitonin or a saturating concentration of ATP (20 μM).

Adrenergic α1D = target: T2, Adrenergic α1D (Homo sapiens, UniProt P25100); experiment: Aequorin assay, Adrenergic α1D; format: cell-based; conditions: antagonism, CHO-K1 mAeq, read-out: Activity (Antagonism: IC50), Adrenergic a1D
T2 construct: expressed in transfected cells; host or cells: CHO-K1 mAeq
Protocol: as §1, §2, §3, §4

Adrenergic α2A = target: T3, Adrenergic α2A (Homo sapiens, UniProt P08913); experiment: GTPγ[35S] assay, Adrenergic α2A; format: biochemical; conditions: antagonism, CHO-K1 membranes, read-out: Activity (Antagonism: IC50), Adrenergic a2A
T3 construct: expressed in transfected cells; host or cells: CHO-K1 (membrane extracts)
Protocol: as §1
(§5) GTPγS studies were conducted to monitor agonist activity for 8′OH-2CF3-dihydroergotamine (8′OH-2CF3-DHE) against the receptors indicated in Table 1 above. Reagents used were the following: Assay buffer (20 mM HEPES, pH 7.4; 100 mM NaCl; 10 μg/mL saponin; 30 mM MgCl2); Membranes (recombinant human receptor membrane extracts were thawed on ice and diluted in assay buffer to give 1000 μg/mL ([…]) and kept on ice); GDP (diluted in assay buffer to give 30 μM solution (3 μM final concentration); beads (PVT-WGA (Amersham, RPNQ001), diluted in assay buffer at 25 mg/mL (0.25 mg/10 μL)); GTPγ^35S (Perkin Elmer, NEG030X), diluted in assay buffer to give 0.1 nM (final concentration); and ligand (agonist/antagonist diluted in assay buffer).
(§6) Membranes were mixed with GDP (1:1) and incubated for at least 15 minutes on ice. In parallel GTPγ^35S was mixed with the beads (1:1) just before starting the reaction. […] The plates were then centrifuged for 10 minutes at 2000 rpm and incubated at room temperature for 1 hour and counted for 1 min/well with a Perkin Elmer TopCount reader.

Adrenergic α2C = target: T4, Adrenergic α2C (Homo sapiens, UniProt P18825); experiment: GTPγ[35S] assay, Adrenergic α2C; format: biochemical; conditions: antagonism, CHO-K1 membranes, read-out: Activity (Antagonism: IC50), Adrenergic a2C
T4 construct: expressed in transfected cells; host or cells: CHO-K1 (membrane extracts)
Protocol: as §1, §5, §6

Dopamine D4 = target: T5, Dopamine D4 (Homo sapiens, UniProt P21917); experiment: GTPγ[35S] assay, Dopamine D4; format: biochemical; conditions: antagonism, CHO-K1 membranes
T5 construct: expressed in transfected cells; host or cells: CHO-K1 (membrane extracts)
Protocol: as §1, §5, §6

Serotonin 5-HT1B = target: T6, Serotonin 5-HT1B (Homo sapiens, UniProt P28222); experiment: GTPγ[35S] assay, Serotonin 5-HT1B; format: biochemical; conditions: agonism, CHO-K1 membranes
T6 construct: expressed in transfected cells; host or cells: CHO-K1 (membrane extracts)
Protocol: as §1, §5, §6

Serotonin 5-HT1D = target: T7, Serotonin 5-HT1D (Homo sapiens, UniProt P28221); experiment: GTPγ[35S] assay, Serotonin 5-HT1D; format: biochemical; conditions: agonism, CHO-K1 membranes
T7 construct: expressed in transfected cells; host or cells: CHO-K1 (membrane extracts)
Protocol: as §1, §5, §6

Serotonin 5-HT3 = target: T8, Serotonin 5-HT3 (Homo sapiens, UniProt P46098); experiment: Aequorin assay, Serotonin 5-HT3; format: cell-based; conditions: antagonism, HEK-293 mAeq
T8 construct: expressed in transfected cells; host or cells: HEK-293 mAeq
Protocol: as §1, §2, §3, §4

[1] = tested on: Somatostatin (SST1 ~ SSTS); experiment: GTPγ[35S] assay, Somatostatin receptors; format: biochemical, human; conditions: CHO-K1 membranes
Protocol: as §1, §5, §6

Opioid (OP1/OP2/OP3) = experiment: GTPγ[35S] assay, Opioid receptors; format: biochemical, human; conditions: CHO-K1 membranes
Protocol: as §1, §5, §6

T1 sequence (P35348 whole entry): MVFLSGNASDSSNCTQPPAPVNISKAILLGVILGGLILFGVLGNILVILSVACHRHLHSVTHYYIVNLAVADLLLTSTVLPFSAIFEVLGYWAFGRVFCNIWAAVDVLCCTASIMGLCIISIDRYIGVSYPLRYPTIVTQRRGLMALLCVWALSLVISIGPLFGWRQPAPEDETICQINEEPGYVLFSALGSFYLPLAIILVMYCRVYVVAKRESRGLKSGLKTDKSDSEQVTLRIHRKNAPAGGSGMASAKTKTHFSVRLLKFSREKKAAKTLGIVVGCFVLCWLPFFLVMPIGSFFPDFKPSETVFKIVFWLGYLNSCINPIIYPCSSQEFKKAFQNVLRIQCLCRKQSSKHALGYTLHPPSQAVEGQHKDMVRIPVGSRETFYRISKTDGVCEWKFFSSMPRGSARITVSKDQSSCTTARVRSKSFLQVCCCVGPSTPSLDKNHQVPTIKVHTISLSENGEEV
T6 sequence (P28222 whole entry): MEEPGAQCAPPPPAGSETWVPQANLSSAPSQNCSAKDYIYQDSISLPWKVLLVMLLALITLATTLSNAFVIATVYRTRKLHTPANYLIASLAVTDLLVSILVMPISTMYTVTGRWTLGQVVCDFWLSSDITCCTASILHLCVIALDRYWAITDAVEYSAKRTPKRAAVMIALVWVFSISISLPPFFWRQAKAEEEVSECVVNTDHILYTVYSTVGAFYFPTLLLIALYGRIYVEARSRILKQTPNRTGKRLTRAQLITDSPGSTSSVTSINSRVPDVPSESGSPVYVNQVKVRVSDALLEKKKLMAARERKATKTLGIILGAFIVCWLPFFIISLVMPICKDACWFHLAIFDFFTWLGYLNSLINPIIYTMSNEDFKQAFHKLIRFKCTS
T4 sequence (P18825 whole entry): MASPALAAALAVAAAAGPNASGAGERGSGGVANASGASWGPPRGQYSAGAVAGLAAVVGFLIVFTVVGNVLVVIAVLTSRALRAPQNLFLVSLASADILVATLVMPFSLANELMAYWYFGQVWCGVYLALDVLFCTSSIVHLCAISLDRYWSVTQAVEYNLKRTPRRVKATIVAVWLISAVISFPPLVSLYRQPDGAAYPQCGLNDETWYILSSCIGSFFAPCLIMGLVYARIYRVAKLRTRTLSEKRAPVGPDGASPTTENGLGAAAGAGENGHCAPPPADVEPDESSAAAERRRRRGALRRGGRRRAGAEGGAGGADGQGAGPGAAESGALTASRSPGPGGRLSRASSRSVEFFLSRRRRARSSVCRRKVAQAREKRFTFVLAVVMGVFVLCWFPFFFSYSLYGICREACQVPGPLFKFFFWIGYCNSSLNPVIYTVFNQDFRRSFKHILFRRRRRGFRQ
T2 sequence (P25100 whole entry): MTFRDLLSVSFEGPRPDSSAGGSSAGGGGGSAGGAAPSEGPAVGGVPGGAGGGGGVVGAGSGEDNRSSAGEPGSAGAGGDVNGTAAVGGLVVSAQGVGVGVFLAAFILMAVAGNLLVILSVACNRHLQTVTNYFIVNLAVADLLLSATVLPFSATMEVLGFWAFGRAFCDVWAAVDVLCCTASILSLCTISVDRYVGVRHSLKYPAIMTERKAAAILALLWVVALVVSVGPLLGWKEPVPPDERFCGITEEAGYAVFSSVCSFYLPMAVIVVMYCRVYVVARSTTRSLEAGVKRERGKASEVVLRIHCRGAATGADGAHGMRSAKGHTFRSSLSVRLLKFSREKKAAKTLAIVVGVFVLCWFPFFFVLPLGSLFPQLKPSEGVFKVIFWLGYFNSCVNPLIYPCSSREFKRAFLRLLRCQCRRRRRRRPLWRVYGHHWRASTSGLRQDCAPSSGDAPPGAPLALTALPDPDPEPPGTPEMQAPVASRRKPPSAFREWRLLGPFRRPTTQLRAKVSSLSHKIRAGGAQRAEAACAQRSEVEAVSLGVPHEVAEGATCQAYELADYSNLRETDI
T7 sequence (P28221 whole entry): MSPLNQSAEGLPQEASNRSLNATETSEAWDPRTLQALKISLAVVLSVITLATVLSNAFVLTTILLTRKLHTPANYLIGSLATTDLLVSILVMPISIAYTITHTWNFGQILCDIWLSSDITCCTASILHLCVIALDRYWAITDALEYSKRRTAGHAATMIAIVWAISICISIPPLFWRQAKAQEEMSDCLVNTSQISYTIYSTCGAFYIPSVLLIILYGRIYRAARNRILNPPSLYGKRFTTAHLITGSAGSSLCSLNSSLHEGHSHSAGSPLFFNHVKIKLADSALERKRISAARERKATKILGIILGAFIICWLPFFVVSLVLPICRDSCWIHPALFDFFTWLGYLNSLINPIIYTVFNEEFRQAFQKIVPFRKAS
T3 sequence (P08913 whole entry): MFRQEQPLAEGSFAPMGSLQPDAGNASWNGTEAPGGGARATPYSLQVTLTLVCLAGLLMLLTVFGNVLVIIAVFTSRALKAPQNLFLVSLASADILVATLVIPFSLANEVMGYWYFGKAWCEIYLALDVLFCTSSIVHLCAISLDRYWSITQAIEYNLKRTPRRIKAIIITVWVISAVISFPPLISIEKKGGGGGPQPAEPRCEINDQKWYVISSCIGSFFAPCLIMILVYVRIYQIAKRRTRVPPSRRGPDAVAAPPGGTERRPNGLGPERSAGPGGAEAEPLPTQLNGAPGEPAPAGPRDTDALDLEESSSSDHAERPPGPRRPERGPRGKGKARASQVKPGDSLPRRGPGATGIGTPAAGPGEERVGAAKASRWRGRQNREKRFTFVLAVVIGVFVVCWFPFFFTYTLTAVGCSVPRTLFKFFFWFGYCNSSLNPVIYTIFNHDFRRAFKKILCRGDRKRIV
T8 sequence (P46098 24-478): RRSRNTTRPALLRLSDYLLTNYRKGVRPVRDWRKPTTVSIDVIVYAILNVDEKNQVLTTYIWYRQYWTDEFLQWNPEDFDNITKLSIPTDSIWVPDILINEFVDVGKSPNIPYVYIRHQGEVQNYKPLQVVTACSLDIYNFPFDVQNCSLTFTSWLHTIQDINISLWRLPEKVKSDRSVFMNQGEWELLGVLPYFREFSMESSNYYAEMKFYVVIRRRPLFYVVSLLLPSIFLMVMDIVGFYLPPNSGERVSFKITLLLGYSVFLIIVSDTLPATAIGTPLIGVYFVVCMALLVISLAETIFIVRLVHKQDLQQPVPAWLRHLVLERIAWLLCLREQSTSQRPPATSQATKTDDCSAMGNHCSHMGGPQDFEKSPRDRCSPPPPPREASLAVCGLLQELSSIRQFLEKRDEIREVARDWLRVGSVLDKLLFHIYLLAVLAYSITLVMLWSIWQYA
T5 sequence (P21917 whole entry): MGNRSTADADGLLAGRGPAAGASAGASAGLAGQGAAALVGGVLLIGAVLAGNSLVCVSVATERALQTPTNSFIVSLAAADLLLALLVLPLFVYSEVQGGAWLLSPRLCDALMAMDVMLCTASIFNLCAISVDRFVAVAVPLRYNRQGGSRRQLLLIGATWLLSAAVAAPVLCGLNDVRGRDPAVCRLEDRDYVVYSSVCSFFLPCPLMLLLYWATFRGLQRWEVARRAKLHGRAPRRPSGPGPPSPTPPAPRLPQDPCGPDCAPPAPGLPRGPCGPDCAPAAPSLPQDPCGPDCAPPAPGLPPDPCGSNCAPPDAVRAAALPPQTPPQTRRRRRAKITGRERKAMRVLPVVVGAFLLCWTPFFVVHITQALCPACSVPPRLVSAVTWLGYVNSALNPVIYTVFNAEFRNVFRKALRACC

Compound: CN1C[C@H](C(=O)N[C@]2(C)O[C@@]3(O)[C@@H]4CC[C@@H](O)N4C(=O)[C@H](Cc4ccccc4)N3C2=O)C[C@@H]2c3cccc4[nH]c(C(F)(F)F)c(c34)C[C@H]21 [8′OH-2-CF3-DHE, 8′-Hydroxy-2-CF3-dihydroergotamine]
- IC50 (Adrenergic α1A): 39.5 nM
- IC50 (Adrenergic α1D): 9.58 nM
- IC50 (Adrenergic α2A): 149 nM
- IC50 (Adrenergic α2C): > 10000 nM
- IC50 (Dopamine D4): > 10000 nM
- EC50 (Serotonin 5-HT1B): 405 nM
- EC50 (Serotonin 5-HT1D): 5.27 nM
- IC50 (Serotonin 5-HT3): 2760 nM
- Activity (Agonism: EC50; Antagonism: IC50), Somatostatin (SST1 ~ SSTS) [1]: Inactive
- Activity (Agonism: EC50; Antagonism: IC50), Opioid (OP1/OP2/OP3) (Opioid (OP1/OP2/OP3)): Inactive

From US20150238487A1, “NOVEL ERGOLINE DERIVATIVES AND USES THEREOF” (MAP Pharmaceuticals, Inc., priority 2012, published 2015)
